Activity calls are given as the source filed them.
Assays:
Melanocortin receptor 4 = Melanocortin receptor 4 (Homo sapiens, UniProt P32245); experiment: inhibitors of MC4R cAMP signaling – cell-based, TR-FRET, biased antagonists, dose response (AID 602298); format: functional;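 further: antagonist potency against agonist-stimulated cAMP production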
[1] = cAMP pathway inhibition in counterscreen cell line – TR-FRET cAMP detection, counter-screen for MC4R biased antagonist project, dose response (AID 602305); format: functional, cell-based;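 further: U2OS cells stimulated with forskolin near its EC80 as the cAMP inducer; potency is for inhibition of forskolin-stimulated cAMP signaling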
[2] = blockers of CAL PDZ–TMR peptide complex – biochemical, fluorescence polarization, untagged CAL PDZ, cherry-pick, set 2, dose response (AID 602254); format: functional
cells = format: functional
[3] = microbe, parasite or virus in culture; format: functional; details: Mycobacterium tuberculosis
[4] = molecular target: Protein disulfide-isomerase (Homo sapiens, UniProt P07237); experiment: inhibition of PDI-driven insulin aggregation – biochemical, turbidity, absorbance, cherry-picked samples, dose response (AID 602350); format: functional
Chain of Protein disulfide-isomerase (P07237 whole entry): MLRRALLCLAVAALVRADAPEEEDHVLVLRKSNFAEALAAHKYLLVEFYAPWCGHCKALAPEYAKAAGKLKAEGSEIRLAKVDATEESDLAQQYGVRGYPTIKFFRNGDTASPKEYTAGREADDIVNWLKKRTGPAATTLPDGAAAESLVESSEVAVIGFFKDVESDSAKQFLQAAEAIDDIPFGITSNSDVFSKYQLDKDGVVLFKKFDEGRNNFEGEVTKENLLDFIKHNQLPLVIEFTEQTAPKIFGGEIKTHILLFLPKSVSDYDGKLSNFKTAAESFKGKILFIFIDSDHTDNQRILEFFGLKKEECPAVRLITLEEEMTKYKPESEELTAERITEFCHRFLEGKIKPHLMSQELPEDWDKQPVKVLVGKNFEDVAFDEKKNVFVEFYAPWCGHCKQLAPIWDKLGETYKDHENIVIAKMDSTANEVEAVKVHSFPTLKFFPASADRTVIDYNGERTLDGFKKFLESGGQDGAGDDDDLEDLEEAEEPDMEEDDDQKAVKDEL

[5] = THP-1 cell cytotoxicity, dose response, cytotoxicity control for non-replicating M. tuberculosis project (AID 489025); format: functional
[6] = molecular target: Melanin-concentrating hormone receptor 1 (Homo sapiens, UniProt Q99705); experiment: Late-stage fluorescence-based counterscreen for antagonists of the G-protein coupled receptor 7 (GPR7): cell-based dose response assay to identify antagonists of the melanin-concentrating hormone receptor 1 (MCHR1) Set 5.; format: functional
Chain of Melanin-concentrating hormone receptor 1 (Q99705 whole entry): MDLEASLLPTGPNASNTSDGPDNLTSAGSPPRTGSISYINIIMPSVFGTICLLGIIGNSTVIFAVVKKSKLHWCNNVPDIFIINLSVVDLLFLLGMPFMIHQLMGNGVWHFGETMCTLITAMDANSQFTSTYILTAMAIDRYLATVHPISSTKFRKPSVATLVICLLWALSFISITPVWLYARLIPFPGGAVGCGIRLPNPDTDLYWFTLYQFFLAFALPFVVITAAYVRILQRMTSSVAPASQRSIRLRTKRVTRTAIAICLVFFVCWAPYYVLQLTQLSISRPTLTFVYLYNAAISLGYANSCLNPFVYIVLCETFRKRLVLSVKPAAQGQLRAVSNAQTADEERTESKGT

[7] = molecular target: T1, Neuropeptides B/W receptor type 1 (Homo sapiens, UniProt P48145); experiment: human NPBW1 receptor blockade, IC50 – cell-based, fluorescence, dose response, set 5, late-stage follow-up (AID 588566); format: functional
T1 sequence (P48145 whole entry): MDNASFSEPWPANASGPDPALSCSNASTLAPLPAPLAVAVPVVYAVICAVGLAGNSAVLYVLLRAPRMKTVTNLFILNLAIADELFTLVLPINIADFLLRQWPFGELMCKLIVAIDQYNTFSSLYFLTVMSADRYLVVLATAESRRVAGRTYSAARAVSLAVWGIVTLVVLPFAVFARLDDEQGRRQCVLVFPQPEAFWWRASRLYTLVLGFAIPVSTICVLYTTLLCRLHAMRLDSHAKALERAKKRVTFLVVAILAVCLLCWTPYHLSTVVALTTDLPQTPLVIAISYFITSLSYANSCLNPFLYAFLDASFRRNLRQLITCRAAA

Streptokinase A = molecular target: T2, Streptokinase A (Streptococcus pyogenes serotype M1, UniProt P10520); experiment: viability-normalized secreted streptokinase activity reduction – plasminogen activation absorbance, OD405, dose response (AID 1914); format: functional, Streptococcus pyogenes M1 GAS;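 further: secreted streptokinase activity via plasminogen activation per viability signal from cell pellet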
T2 sequence (P10520 whole entry): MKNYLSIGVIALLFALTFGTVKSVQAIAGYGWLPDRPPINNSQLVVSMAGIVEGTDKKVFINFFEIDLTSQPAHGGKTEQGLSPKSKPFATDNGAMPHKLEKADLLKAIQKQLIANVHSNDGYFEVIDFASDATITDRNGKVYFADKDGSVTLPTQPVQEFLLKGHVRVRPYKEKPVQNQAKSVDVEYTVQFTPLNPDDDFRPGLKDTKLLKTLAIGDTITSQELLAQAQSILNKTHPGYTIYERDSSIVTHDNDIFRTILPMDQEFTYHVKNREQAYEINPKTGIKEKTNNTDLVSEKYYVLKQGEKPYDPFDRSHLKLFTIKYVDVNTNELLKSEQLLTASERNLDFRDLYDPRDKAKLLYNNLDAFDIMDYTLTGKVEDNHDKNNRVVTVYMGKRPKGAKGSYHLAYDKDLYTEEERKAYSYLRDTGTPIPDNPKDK

Streptococcus = experiment: GAS UMAA2166 growth inhibition – luminescence, BacTiterGlo, counter-screen for streptokinase expression inhibitor project, dose response (AID 1915); format: functional, organism-based;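 further: potency for reduction of bacterial viability or growth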
[8] = molecular target: T3, Orexin/Hypocretin receptor type 1 (Homo sapiens, UniProt O43613); experiment: Homogeneous Time Resolved Fluorescence (HTRF)-based cell-based high throughput dose response assay for antagonists of the orexin 1 receptor (OX1R; HCRTR1). [Related pubchem assays (depositor defined):AID434989, AID435008, AID463079, AID485270, AID492963, AID492964, AID492965, AID493232, AID504717, AID504718]; format: functional
T3 sequence (O43613 whole entry): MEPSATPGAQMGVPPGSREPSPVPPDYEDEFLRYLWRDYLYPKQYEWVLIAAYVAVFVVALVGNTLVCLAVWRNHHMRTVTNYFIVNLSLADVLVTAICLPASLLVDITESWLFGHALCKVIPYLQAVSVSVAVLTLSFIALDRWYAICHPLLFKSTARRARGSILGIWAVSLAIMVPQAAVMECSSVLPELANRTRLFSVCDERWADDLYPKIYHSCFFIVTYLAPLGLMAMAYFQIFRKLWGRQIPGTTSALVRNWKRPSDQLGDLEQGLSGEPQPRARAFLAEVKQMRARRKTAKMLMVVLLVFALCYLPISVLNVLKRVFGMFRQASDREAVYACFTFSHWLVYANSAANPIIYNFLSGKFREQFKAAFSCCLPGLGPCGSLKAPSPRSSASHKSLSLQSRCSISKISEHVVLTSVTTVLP

[9] = blockade of melanocortin 4 receptor signaling – cell-based, plate reader, cherry pick, counter-screen for LGR2 antagonist project, dose response (AID 743444); format: functional;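 further: transfected HEK 293 cells stimulated with alpha-MSH peptide; potency of inhibitors of the alpha-MSH evoked signal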
Orexin receptor type 2 [10] = molecular target: T4, Orexin receptor type 2 (Homo sapiens, UniProt O43614); experiment: Counterscreen assay for antagonists of the orexin 1 receptor (OX1R; HCRTR1): Fluorescence-based cell-based dose response assay for antagonists of the orexin 2 receptor (OX2R; HCRTR2), run by assay provider.; format: functional
T4 sequence (O43614 whole entry): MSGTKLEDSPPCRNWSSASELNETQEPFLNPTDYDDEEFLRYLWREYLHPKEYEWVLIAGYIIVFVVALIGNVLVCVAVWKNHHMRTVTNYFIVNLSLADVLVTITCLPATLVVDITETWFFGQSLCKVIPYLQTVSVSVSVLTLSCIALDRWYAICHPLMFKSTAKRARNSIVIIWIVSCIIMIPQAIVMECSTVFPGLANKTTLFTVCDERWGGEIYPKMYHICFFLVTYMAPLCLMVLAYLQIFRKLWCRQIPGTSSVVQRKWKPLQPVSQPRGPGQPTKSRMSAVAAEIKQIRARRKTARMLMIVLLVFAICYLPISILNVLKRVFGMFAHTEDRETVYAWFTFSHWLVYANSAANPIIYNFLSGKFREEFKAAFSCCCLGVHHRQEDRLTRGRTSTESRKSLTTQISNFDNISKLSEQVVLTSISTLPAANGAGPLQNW

Orexin receptor type 2 [11] = molecular target: T4, Orexin receptor type 2; experiment: Counterscreen assay for antagonists of the orexin 1 receptor (OX1R; HCRTR1): Homogeneous Time Resolved Fluorescence (HTRF)-based cell-based dose response assay for antagonists of the orexin 2 receptor (OX2R; HCRTR2), run by assay provider.; format: functional
[12] = system: Streptococcus sp. 'group A'; experiment: Streptococcus pyogenes SK(-)GAS viability under kanamycin – luminescence, BacTiterGlo, confirmation, counter-screen for streptokinase expression inhibitor project, dose response (AID 1900); format: functional, organism-based
CAAX prenyl protease 2 = molecular target: T5, CAAX prenyl protease 2 (Saccharomyces cerevisiae S288c, UniProt Q03530); format: biochemical
T5 sequence (Q03530 whole entry): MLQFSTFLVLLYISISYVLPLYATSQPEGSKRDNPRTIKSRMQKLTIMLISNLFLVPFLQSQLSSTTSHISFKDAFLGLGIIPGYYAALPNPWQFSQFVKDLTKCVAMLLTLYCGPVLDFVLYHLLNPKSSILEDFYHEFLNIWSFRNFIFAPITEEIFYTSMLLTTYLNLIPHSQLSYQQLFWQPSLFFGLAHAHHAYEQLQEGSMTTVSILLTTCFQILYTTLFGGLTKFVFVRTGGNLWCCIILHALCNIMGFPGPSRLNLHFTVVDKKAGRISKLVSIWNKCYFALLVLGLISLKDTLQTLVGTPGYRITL

[13] = A549 cell cytotoxicity, dose response, cytotoxicity control, plate reader, cherry-pick, antagonist series (AID 743412); format: functional, cell-based
CHO-K1 = experiment: (§1) Counterscreen for antagonists of the orexin 1 receptor (OX1R; HCRTR1): Homogeneous time resolved fluorescence (HTRF)-based cell-based dose response assay to identify antagonists of the parental CHO-K1 cell line. [Related pubchem assays (depositor defined):AID434989, AID435008, AID463079, AID485270, AID492963, AID492964, AID492965, AID493232, AID504699, AID504701]; format: functional; details: Cricetulus griseus
[14] = molecular target: T3, Orexin/Hypocretin receptor type 1; experiment: Fluorescence-based cell-based high throughput dose response assay for antagonists of the orexin 1 receptor (OX1R; HCRTR1). [Related pubchem assays (depositor defined):AID434989, AID435008, AID463079, AID485270, AID492963, AID492964, AID492965, AID493232, AID504717, AID504718]; format: functional
[15] = viability loss in HEK293 cells – cell-based, plate reader, cherry-picked samples, cytotoxicity control, dose response (AID 743446); format: functional
[16] = as §1, with “Fluorescence-based” for “Homogeneous time resolved fluorescence (HTRF)-based”, “cell-based high throughput” for “cell-based”, “CHO” for “CHO-K1”; format: functional
[17] = toxicity toward HepG2 liver cells – cell-based, plate reader, cherry-pick, antagonist series, cytotoxicity control, dose response (AID 743416); format: functional
[18] = molecular target: T6, High affinity choline transporter 1 (Homo sapiens, UniProt Q9GZV3); experiment: human choline transporter potentiators, potency – cell-based, 10-point CRC, membrane potential dye, dose response (AID 602376); format: functional
T6 sequence (Q9GZV3 whole entry): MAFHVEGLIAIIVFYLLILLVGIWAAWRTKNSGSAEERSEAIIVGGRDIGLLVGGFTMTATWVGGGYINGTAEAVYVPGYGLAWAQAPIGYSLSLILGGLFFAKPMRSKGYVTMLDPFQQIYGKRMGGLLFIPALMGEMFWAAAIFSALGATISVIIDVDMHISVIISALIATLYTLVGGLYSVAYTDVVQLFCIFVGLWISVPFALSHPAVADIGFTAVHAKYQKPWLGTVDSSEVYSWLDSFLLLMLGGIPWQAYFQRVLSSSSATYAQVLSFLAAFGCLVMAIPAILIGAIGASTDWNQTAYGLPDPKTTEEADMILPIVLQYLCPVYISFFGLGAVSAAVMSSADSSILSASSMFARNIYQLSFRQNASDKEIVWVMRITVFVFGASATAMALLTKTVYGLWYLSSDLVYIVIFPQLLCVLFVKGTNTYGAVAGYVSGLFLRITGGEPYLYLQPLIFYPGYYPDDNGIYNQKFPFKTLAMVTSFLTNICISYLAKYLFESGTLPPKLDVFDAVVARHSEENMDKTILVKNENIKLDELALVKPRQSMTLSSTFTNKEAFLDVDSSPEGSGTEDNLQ

[19] = viability of PTEN-deleted HCT116 cells – cell-based, HCT116 PTEN knockout, dose response (AID 1047); format: functional;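 further: HCT116 colon tumor cells with PTEN knocked out; cells exposed to compound for 60 hours before readout; potency for loss of cell viability measured by luminescence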
[20] = viability of HCT116 lacking mutant beta-catenin – cell-based, human colon tumor, dose response (AID 1045); format: functional;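 further: HCT116 colon tumor cells with beta catenin knocked out; cells exposed to compound for 60 hours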
[21] = blockers of bursicon-stimulated LGR2 cAMP reporter – cell-based, HEK293, CRE-luciferase reporter, cherry pick, set 2, dose response (AID 743343); format: functional;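 further: transfected cells were stimulated with diluted bursicon conditioned medium after compound addition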

Chain of Melanocortin receptor 4 (P32245 whole entry): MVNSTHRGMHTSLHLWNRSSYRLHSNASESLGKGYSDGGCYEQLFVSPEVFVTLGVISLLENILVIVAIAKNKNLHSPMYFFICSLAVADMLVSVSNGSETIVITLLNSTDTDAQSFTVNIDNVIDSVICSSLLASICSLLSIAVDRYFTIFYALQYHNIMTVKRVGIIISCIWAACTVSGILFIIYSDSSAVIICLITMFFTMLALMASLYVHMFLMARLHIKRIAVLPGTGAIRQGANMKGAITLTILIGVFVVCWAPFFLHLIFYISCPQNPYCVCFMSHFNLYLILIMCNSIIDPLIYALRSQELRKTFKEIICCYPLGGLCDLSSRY

## O=C(COC(=O)CNC(=O)c1ccc(Cl)cc1Cl)NCc1ccco1
Melanocortin receptor 4
  IC50: > 64.6 µM (inactive)
[1]
  IC50: > 64.6 µM (inactive)

## N#Cc1ccc(NC(=S)NCCN2CCOCC2)cc1
[2]
  AC50: 107 µM (active)

## CCc1cc(OCCCCNCc2ccccc2)ccc1Cl
cells
  IC50: 20.1 µM (active)
[3]
  CC50: > 40 µM (active)
[4]
  AC50: 10.6 µM (active)
[5]
  CC50: > 40 µM (active)

## COc1ccc(Oc2c(Cl)cnn(CC(=O)O)c2=O)cc1
[6]
  IC50: > 20 µM (inactive)
[7]
  IC50: > 20 µM (inactive)

## O=[N+]([O-])c1ccc(-c2c[nH]c(SC(c3ccccc3)c3ccccc3)n2)cc1
Streptokinase A
  EC50: 15.2 µM (active)
Streptococcus
  EC50: > 150 µM (not active)
[8]
  IC50: 5.72 µM (active)
[9]
  AC50: 7.88 µM (active)
Orexin receptor type 2 [10]
  IC50: 29.7 µM (inactive)
Orexin receptor type 2 [11]
  IC50: > 50 µM (inactive)
[12]
  EC50: 6.07 µM (active)
CAAX prenyl protease 2
  AC50: 2.05 µM (active)
[13]
  AC50: 19 µM (active)
CHO-K1
  IC50: > 66.2 µM (inactive)
[14]
  IC50: 7.34 µM (active)
[15]
  AC50: 22.2 µM (active)
[16]
  IC50: 32.6 µM (inactive)
[17]
  AC50: 19.1 µM (active)

## N#CC(c1ccccc1)c1c(Cl)cnn(Cc2cccc3ccccc23)c1=O (stereo not given)
[6]
  IC50: 7.61 µM (active)
[7]
  IC50: 0.13 µM (active)

## O=C(Cc1cccs1)N(Cc1ccco1)C1(C(=O)NC2CCCCC2)CCCCC1
[18]
  EC50: 24.2 µM (active)
[19]
  EC50: 159 µM (active)
[20]
  EC50: 431 µM (active)

## CC(C)c1ccccc1NC(=O)Cn1c(-c2ccccc2Cl)nc2ccccc21
[18]
  EC50: 18.3 µM (active)

## CC(C)(C)OC(=O)N[C@@H](Cc1c[nH]c2ccccc12)c1nnc(SCC(N)=O)o1
[4]
  AC50: 19.5 µM (active)

## Cc1ccc2nc(-c3ccc(NC(=O)C(C)Sc4nncs4)cc3)sc2c1 (stereo not given)
[9]
  AC50: 5.51 µM (active)
[21]
  AC50: 5.56 µM (active)
Melanocortin receptor 4
  IC50: > 64.6 µM (inactive)
[1]
  IC50: > 64.6 µM (inactive)
[15]
  AC50: > 52 µM (inactive)

Source: ChEMBL document CHEMBL1201862, “PubChem BioAssay data set” (2004)
